# How the values were obtained:
# δ-cat S259 = assay: Phosphoproteomics in rat primary cortical neurons, δ-cat; format: cell-based; conditions: 1 μM KP; after 1 h, sustained at 24 h
# Description: (§1) Cultured rat primary cortical neurons were treated with either vehicle DMSO (0.1%) or 1 μM KP for 1 h/24 h. Cells were lysed in non-detergent-containing buffer (Tris.Cl pH8 50 mM, NaCl 150 mM, 0.5% Phosphatase Inhibitor (Pierce #88667) and Protease Inhibitor (Roche #11836153001)). 500 μL was removed and solid urea was added to a final concentration of 8M. Samples were sonicated for further solubilization. After clearing of insoluble material by centrifugation, protein concentration was measured by Bradford assay. 250 μg of total protein was removed from each sample and solubilization buffer was added to normalize all samples to 0.93 μg/μL protein. Samples were then spiked with bovine alpha-casein to 30 fmol/μg of total protein. Samples were reduced with 10 mM DTT at 32° C. for 45 min and then alkylated with 20 mM iodoacetamide at room temperature for 30 min. […]
# (§2) TiO2 Enrichment. […] After cleanup using a C18 STAGE tip, and resuspension in 2% acetonitrile, 0.1% TFA, 10 mM citric acid samples were quantified.
# (§3) Quantitative analysis of Phosphopeptide Enriched Samples. Quantitative LC-MS/MS was performed in singlicate (4 uL=33% of the total sample each injection) for phosphopeptide-enriched samples using a nanoAcquity UPLC system (Waters Corp) coupled to a Thermo QExactive Plus high resolution accurate mass tandem mass spectrometer (Thermo) via a nanoelectrospray ionization source. […]
# δ-cat = δ-cat nuclear translocation in primary neurons, immunolabeling morphometry; format: cell-based, rat; conditions: KP vs vehicle, FIG. 8C
# Description: Immunocytochemistry labeling of cultured neuronal cells was carried out as previously described (Liedtke et al., 2013, Small 9, 1066-1075; Yeo et al., 2009, J Neurosci 29:14652-14662; Yeo et al., 2013, Proc Natl Acad Sci USA 110:4315-4320). Primary antibodies are shown in the antibody table. Anti-KCC2 primary antibodies were validated with developing rat primary cortical neurons; we observed an increase in staining pattern that tightly matched increase of KCC2 mRNA expression (Liedtke et al., 2013, Small 9:1066-1075; Yeo et al., 2009, J Neurosci 29:14652-14662.; Yeo et al., 2013, Proc Natl Acad Sci USA 110:4315-4320). Secondary antibodies used were goat anti-mouse IgG Alexa Fluor 594 (Invitrogen A11032) and goat anti-rabbit IgG Alexa Fluor 594 (Invitrogen A11012). DAPI stain was obtained from Sigma Aldrich (D9542). Stained cells were observed using an inverted confocal microscope (Zeiss LSM780).
# We obtained stacks of images recorded at 0.35 μm intervals through separate channels with a 63× oil-immersion lens (NA, 1.40, refraction index, 1.45). Zen software (Zeiss) was used to construct composite images from each optical series by combining the images recorded through the different channels, and the same software was used to obtain Z projection images (image resolution: 1024×1024 pixels; pixel size: 0.11 μm). ImageJ was used for morphometry. […]
# ß-catenin (ß-cat) = assay: Phosphoproteomics in rat primary cortical neurons, ß-cat; format: cell-based; conditions: 1 μM KP
# Description: as §1, §2, §3
smiles,measurement,setting,value
"O=C1Cc2c([nH]c3ccc(Br)cc23)-c2ccccc2N1 [kenpaullone, 9-bromo-7,12-dihydro-indolo [3,2-d] [1]benzazepin-6(5H)-one]",S259 phosphorylation of δ-cat,δ-cat S259,significant de-phosphorylation
same,δ-cat nuclear translocation,δ-cat,significantly increases
same,differential phosphorylation of ß-cat,ß-catenin (ß-cat),not significantly differentially phosphorylated

# Reference: patent US20220281930A1, “COMPOSITIONS AND METHODS FOR THE TREATMENT OF PATHOLOGICAL PAIN AND ITCH” (DUKE UNIVERSITY, priority 2019, published 2022)
